Results from the supplement of paper PMC10307832.

Legend:
Assay in all cases: relative viability (nuclei count vs DMSO), 5 days (fraction); higher = more cells survive
Erlotinib + AZD7762 = compound: C#Cc1cccc(Nc2ncnc3cc(OCCOC)c(OCCOC)cc23)c1 [Erlotinib] + NC(=O)Nc1cc(-c2cccc(F)c2)sc1C(=O)N[C@H]1CCCNC1 [AZD7762] (partner 0.2 µM)
In short: (§1)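 The day after seeding in 1536-well plates, lung cancer cell lines were treated by pin tool with a single drug, or with a fixed anchor-drug dose together with five library-drug doses (not always all listed) in √10 steps. After 5 days, a combined fix-and-stain solution (final 0.05% Triton X-100, 1% formaldehyde, 1 ug/ml Hoechst) was added. Nuclei counted on 4× images gave relative viability as treated counts over vehicle counts, reported as the median of duplicate plates.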

Erlotinib + Alpelisib = compound: C#Cc1cccc(Nc2ncnc3cc(OCCOC)c(OCCOC)cc23)c1 [Erlotinib] + Cc1nc(NC(=O)N2CCC[C@H]2C(N)=O)sc1-c1ccnc(C(C)(C)C(F)(F)F)c1 [Alpelisib] (partner 2 µM)
In short: as §1

AT9283 + Pemetrexed = compound: O=C(Nc1c[nH]nc1-c1nc2ccc(CN3CCOCC3)cc2[nH]1)NC1CC1 [AT9283] + Nc1nc2[nH]cc(CCc3ccc(C(=O)N[C@@H](CCC(=O)O)C(=O)O)cc3)c2c(=O)[nH]1 [Pemetrexed] (partner 0.2 µM)
In short: as §1

Erlotinib + Linsitinib = compound: C#Cc1cccc(Nc2ncnc3cc(OCCOC)c(OCCOC)cc23)c1 [Erlotinib] + C[C@]1(O)C[C@@H](c2nc(-c3ccc4ccc(-c5ccccc5)nc4c3)c3c(N)nccn32)C1 [Linsitinib] (partner 1 µM)
In short: as §1

AT9283 + Trametinib = compound: O=C(Nc1c[nH]nc1-c1nc2ccc(CN3CCOCC3)cc2[nH]1)NC1CC1 [AT9283] + CC(=O)Nc1cccc(-n2c(=O)n(C3CC3)c(=O)c3c(Nc4ccc(I)cc4F)n(C)c(=O)c(C)c32)c1 [Trametinib] (partner 0.02 µM)
In short: as §1

Row | Cell Line | relative viability (Erlotinib + AZD7762; first compound 0.02 µM) | relative viability (Erlotinib + AZD7762; first compound 0.2 µM) | relative viability (Erlotinib + AZD7762; first compound 0.6325 µM) | relative viability (Erlotinib + AZD7762; first compound 2 µM) | relative viability (Erlotinib + Alpelisib; first compound 0.02 µM) | relative viability (Erlotinib + Alpelisib; first compound 0.2 µM) | relative viability (Erlotinib + Alpelisib; first compound 0.6325 µM) | relative viability (Erlotinib + Alpelisib; first compound 2 µM) | relative viability (AT9283 + Pemetrexed; first compound 0.003 µM) | relative viability (AT9283 + Pemetrexed; first compound 0.03 µM) | relative viability (AT9283 + Pemetrexed; first compound 0.09487 µM) | relative viability (AT9283 + Pemetrexed; first compound 0.3 µM) | relative viability (Erlotinib + Linsitinib; first compound 0.02 µM) | relative viability (Erlotinib + Linsitinib; first compound 0.2 µM) | relative viability (Erlotinib + Linsitinib; first compound 0.6325 µM) | relative viability (Erlotinib + Linsitinib; first compound 2 µM) | relative viability (AT9283 + Trametinib; first compound 0.003 µM) | relative viability (AT9283 + Trametinib; first compound 0.03 µM) | relative viability (AT9283 + Trametinib; first compound 0.09487 µM) | relative viability (AT9283 + Trametinib; first compound 0.3 µM)
1 | A-427 | 0.735 | 0.763 | 0.843 | 0.767 | 1 | 1.04 | 1.12 | 1.05 | 0.979 | 0.767 | 0.272 | 0.299 | 1.15 | 1.1 | 1.12 | 1.12 | 0.706 | 0.501 | 0.334 | 0.396
2 | NCI-H2170 | 0.862 | 0.737 | 0.54 | 0.35 | 0.895 | 0.745 | 0.578 | 0.308 | 0.464 | 0.234 | 0.2 | 0.132 | – | – | – | – | 0.958 | 0.747 | 0.268 | 0.159
3 | NCI-H2023 | – | – | – | – | 0.64 | 0.525 | 0.453 | 0.401 | 0.214 | 0.199 | 0.126 | 0.102 | 0.721 | 0.574 | 0.428 | 0.496 | 0.572 | 0.604 | 0.227 | 0.119
4 | COR-L23 | – | – | – | – | 0.84 | 0.719 | 0.836 | 0.553 | 0.213 | 0.165 | 0.137 | 0.137 | 1.21 | 0.95 | 1.07 | – | 0.668 | 0.245 | 0.166 | 0.161
5 | NCI-H2228 | – | – | – | – | 0.906 | 0.858 | 0.716 | 0.642 | 0.337 | 0.244 | 0.181 | 0.16 | 0.515 | 0.75 | 0.557 | 0.514 | 0.422 | 0.518 | 0.239 | 0.207
6 | SW 900 | 0.783 | 0.52 | 0.557 | 0.443 | – | – | – | – | 0.326 | 0.468 | 0.423 | 0.32 | – | – | – | – | 0.66 | 0.607 | 0.345 | 0.27
7 | EBC-1 | – | – | – | – | 0.792 | 0.772 | 0.757 | 0.792 | – | – | – | – | 0.918 | 0.969 | 1.06 | 0.699 | – | – | – | –
8 | NCI-H2342 | 0.453 | 0.566 | 0.502 | – | – | – | – | – | 0.793 | 0.619 | 0.603 | 0.387 | – | – | – | – | 0.841 | 0.808 | 0.707 | 0.442
9 | NCI-H1299 | – | – | – | – | 1.07 | 1.03 | 1.1 | 1.03 | – | – | – | – | 1.07 | 0.968 | 1.04 | 0.956 | – | – | – | –
10 | SK-LU-1 | – | – | – | – | 1.36 | 1.01 | 0.962 | 0.631 | 1.16 | 0.663 | 0.396 | 0.391 | 1.46 | 1.11 | 1.18 | 0.75 | 0.508 | 0.424 | 0.288 | 0.279
11 | ABC-1 | 0.789 | – | 0.647 | 0.507 | 1.09 | 1.2 | 1.01 | 0.92 | – | – | – | – | 0.928 | 0.674 | 0.776 | 0.686 | – | – | – | –
12 | NCI-H1648 | – | 0.649 | 0.64 | 0.465 | – | – | – | – | 0.579 | 0.553 | 0.493 | 0.386 | – | – | – | – | 0.404 | 0.563 | 0.333 | 0.336
